The numbers were not newly measured in patent US20080153927A1, “ALPHA-2B RECEPTOR AGONIST AND RELAXANT COMPOSITIONS FOR TREATING GASTROINTESTINAL MOTILITY DISORDERS” (Allergan, Inc., priority 2006, published 2008), which cites them from elsewhere.

Each structure is given as a SMILES string.

On to `CN(C)[C@@H](CCOc1cccc2ccccc12)c1ccccc1` [Dapoxetine], for which, under “in vivo”, the initial half-life was 1.2 h. For the same compound, the “time to maximum serum concentration” value (serum) was “about 1 hour”.
